Inhibition of growth and melting point data for two compounds are collected here from US20120088665A1, “FUNGICIDAL MIXTURES” (BASF SE, priority 2009, published 2012).

For one series, the system named is Phytophthora infestans. In words: microbe, parasite or virus in culture. Format: cell-based. The following applies: Phytophthora infestans, 168 h, read-out: Observed activity.
The test system of another series is Botrytis cinerea. In words: Activity against the gray mold pathogen Botrytis cinerea in the microtiter test (Botrci). It is filed as cell-based. To be noted: Botrytis cinerea, 168 h, read-out: Observed activity.
A further series relates to Septoria tritici. In words: Activity against the Septoria leaf spot pathogen Septoria tritici in the microtiter test (Septtr). It is filed as cell-based. The following applies: Zymoseptoria tritici, 168 h, single active compound, conc 16 ppm, read-out: Observed activity.

For the compound `CC1COC(Cn2ncnc2S)(c2ccc(Oc3ccc(Cl)cc3)cc2Cl)O1` (stereo not shown) [I-5, 2-{2-[2-chloro-4-(4-chlorophenoxy)phenyl]-4-methyl-[1,3]dioxolan-2-ylmethyl}-2H-[1,2,4]triazole-3-thiol], the melting point was determined as 73.4 °C. In the series on Phytophthora infestans, the inhibition of growth at 1 ppm was determined as 8%. For the same compound, the inhibition of growth at 4 ppm in the series on Botrytis cinerea (conc 4 ppm) was 36%.

As for `CC1(C)CC/C(=C\c2ccc(Cl)cc2)C1(O)Cn1ncnc1S` (stereo not shown) [I-22, 5-[1-(4-chlorophenyl)meth-(E)-ylidene]-1-(5-mercapto-[1,2,4]triazol-1-ylmethyl)-2,2-dimethylcyclopentanol], the melting point stood at 176.5 °C. The inhibition of growth at 1 ppm with Phytophthora infestans came out at 6%. In addition, the inhibition of growth at 16 ppm in the series with Botrytis cinerea (conc 16 ppm) came out at 8%. Also, the inhibition of growth at 16 ppm in the series with Septoria tritici was 22%.

As usually defined, the melting point is the temperature, or range, at which the solid turns liquid.
